Reference: patent USRE37781E1, “Substituted cyclic carbonyls and derivatives thereof useful as retroviral protease inhibitors” (DuPont Pharmaceuticals Company, priority 1991, dated 2002)
pKi: −log10 of the molar value. ≈ marks a conversion by molar mass, not a printed value. Like-named read-outs stand apart in the source and are kept apart here.

What was measured:
[1] = molecular target: single-chain tethered dimer of HIV protease (Human immunodeficiency virus 1, UniProt P04585); test: biochemical; assay type: biochemical
Description: HIV Protease Inhibition Assay—HPLC Method
Active protease was prepared as described therein by extraction with 67% acetic acid, dilution 33-fold with water, dialysis against water and then against a “refolding buffer” consisting of 20 mM MES, 1 mM dithiothreitol and 10% glycerol. Protease was stored as a stock preparation at 10 uM in refolding buffer.
Substrate: Peptide of sequence: aminobenzoyl-Ala-Thr-His-Gln-Val-Tyr-Phe(NO2)-Val-Arg-Lys-Ala containing p-nitrophenylalanine, was prepared by solid phase synthesis as previously described Cheng et al., op.cit. Stock solutions of 2 mM substrate were prepared in DMSO.
Inhibitory compounds were dissolved in sufficient DMSO to make 3 mM stock solutions. All further dilutions were prepared in “assay buffer”: 1M NaCl, 50 mM MES, pH 5.5, 1 mM EDTA, 1 mM DTT, […] glycerol.
Enzyme reaction: In a 2 ml screw-cap centrifuge tube were added 50 ul protease (final concentration 0.25 nM) and 0.1 ml inhibitory compound (final concentration […]). After 15 min preincubation at room temperature, the reaction was started with the addition of 0.05 ml substrate (final concentration 5 uM). Incubation was carried out at 30 C. for 1 hr. The reaction was stopped with 1 ml 0.1M ammonium hydroxide.
HPLC measurement of product formation: The product (aminobenzoyl-Ala-Thr-His-Gln-Val-Tyr) was separated from substrate on a Pharmacia MonoQ anion exchange column. The injection volume was 0.2 ml. The mobile phases were: A (20 mM trisHCl, pH 9.0, 0.02% sodium Azide, 10% acetonitrile), B (20 mM tris HCl, pH 9.0, 0.02% sodium azide, 0.5M ammonium formate, 10% acetonitrile). The mobile phases were pumped at 1 ml/min, with a gradient from 0 to 30% B in 5 min, 100% B for 4 min to wash the column, and a re-equilibration for 4 min. The retention time of the product was 3.6 min. Detection with a Shimadzu model RF535 fluorescence monitor was at 330 nm (excitation) and 430 (emission).

HIV-1 (RF) in MT-2 cells = test: microbe, parasite or virus in culture; assay type: cell-based; conditions: HIV-1 infected MT-2 cells, class symbols
Method in brief: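 Read-out: gag and pol viral RNA captured by 5′-biotinylated oligonucleotides on streptavidin-coated wells, detected with alkaline phosphatase-linked reporter oligonucleotides, calibrated against BH10 in vitro transcripts. Virus stocks (RF, MN, IIIB) come from H9 cultures; MT-2 host cells kept in RPMI 1640, 5% FCS.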

[2] = Human immunodeficiency virus 1, MT2, HIV RNA assay, read-out: IC90
[3] = HIV protease inhibition, class symbols, read-out: Ki

SMILES: CCCCN1C(=O)N(CC2CCCC2)C(Cc2ccccc2)C(O)C(O)C1Cc1ccccc1 (stereo not drawn) [Example 6J]
- pKi [1]: > 8.00
- IC90 (HIV-1 (RF) in MT-2 cells; [2]): < 10 µg/mL

SMILES: CC(C)N1C(=O)N(Cc2ccccn2)C(Cc2ccccc2)C(O)C(O)C1Cc1ccccc1 (stereo not drawn) [Example 6L]
- pKi [1]: 6.00 to 8.00
- IC90 (HIV-1 (RF) in MT-2 cells; [2]): < 10 µg/mL

SMILES: COc1ccc(CN2C(=O)N(Cc3ccc(OC)cc3)C(Cc3ccccc3)C(O)C(O)C2Cc2ccccc2)cc1 (stereo not drawn) [Example 6M]
- pKi [1, 3]: 6.00 to 8.00
- IC90 (HIV-1 (RF) in MT-2 cells; HIV RNA assay): +++ (+++=<10 μg/mL)

SMILES: CN(C)CCN1C(=O)N(CCN(C)C)C(Cc2ccccc2)C(O)C(O)C1Cc1ccccc1 (stereo not drawn) [Example 6N]
- pKi [1, 3]: < 6.00
- IC90 (HIV-1 (RF) in MT-2 cells; HIV RNA assay): + (+=>100 μg/mL)

SMILES: O=C1N(Cc2ccccc2F)C(Cc2ccccc2)C(O)C(O)C(Cc2ccccc2)N1Cc1ccccc1F (stereo not drawn) [Example 6P]
- pKi [1]: 6.00 to 8.00
- IC90 (HIV-1 (RF) in MT-2 cells; [2]): < 10 µg/mL

SMILES: COc1cccc(CN2C(=O)N(Cc3cccc(OC)c3)C(Cc3ccccc3)C(O)C(O)C2Cc2ccccc2)c1 (stereo not drawn) [Example 6Q]
- pKi [1]: > 8.00
- IC90 (HIV-1 (RF) in MT-2 cells; [2]): < 10 µg/mL

SMILES: CN(C)CCN1C(=O)N(CCN(C)C)C(Cc2ccccc2)C(O)C(O)C1Cc1ccccc1 (stereo not drawn) [Example 6R]
- pKi [1]: < 6.00
- IC90 (HIV-1 (RF) in MT-2 cells; [2]): > 100 µg/mL

SMILES: O=C1N(Cc2ccc(F)c(F)c2)C(Cc2ccccc2)C(O)C(O)C(Cc2ccccc2)N1Cc1ccc(F)c(F)c1 (stereo not drawn) [Example 6S]
- pKi [1]: > 8.00
- IC90 (HIV-1 (RF) in MT-2 cells; [2]): < 10 µg/mL

SMILES: Cc1ccc(CN2C(=O)N(Cc3ccc(C)cc3)C(Cc3ccccc3)C(O)C(O)C2Cc2ccccc2)cc1 (stereo not drawn) [Example 6T]
- pKi [1]: > 8.00
- IC90 (HIV-1 (RF) in MT-2 cells; [2]): < 10 µg/mL

SMILES: O=C1N(Cc2ccc(Cl)cc2)C(Cc2ccccc2)C(O)C(O)C(Cc2ccccc2)N1Cc1ccc(Cl)cc1 (stereo not drawn) [Example 6U]
- pKi [1]: > 8.00
- IC90 (HIV-1 (RF) in MT-2 cells; [2]): < 10 µg/mL

SMILES: O=C1N(Cc2ccc(F)cc2)C(Cc2ccccc2)C(O)C(O)C(Cc2ccccc2)N1CC1CC1 (stereo not drawn) [Example 6V]
- pKi [1, 3]: > 8.00
- IC90 (HIV-1 (RF) in MT-2 cells; HIV RNA assay): +++ (+++=<10 μg/mL)

SMILES: Cc1cccc(CN2C(=O)N(Cc3cccc(C)c3)C(Cc3ccccc3)C(O)C(O)C2Cc2ccccc2)c1 (stereo not drawn) [Example 6ZA]
- pKi [1]: > 8.00
- IC90 (HIV-1 (RF) in MT-2 cells; [2]): < 10 µg/mL

SMILES: COc1ccccc1CN1C(=O)N(Cc2ccccc2OC)C(Cc2ccccc2)C(O)C(O)C1Cc1ccccc1 (stereo not drawn) [Example 6ZB]
- pKi [1]: < 6.00
- IC90 (HIV-1 (RF) in MT-2 cells; [2]): 10 to 100 µg/mL (≈ 17.6 to 176 µM)

SMILES: O=C1N(Cc2ccccc2Cl)C(Cc2ccccc2)C(O)C(O)C(Cc2ccccc2)N1Cc1ccccc1Cl (stereo not drawn) [Example 6ZD]
- pKi [1]: 6.00 to 8.00
- IC90 (HIV-1 (RF) in MT-2 cells; [2]): < 10 µg/mL

SMILES: O=C1N(Cc2ccc(Br)cc2)C(Cc2ccccc2)C(O)C(O)C(Cc2ccccc2)N1Cc1ccc(Br)cc1 (stereo not drawn) [Example 6ZG]
- pKi [1]: 6.00 to 8.00
- IC90 (HIV-1 (RF) in MT-2 cells; [2]): < 10 µg/mL

SMILES: O=C1N(Cc2cccc(Cl)c2)C(Cc2ccccc2)C(O)C(O)C(Cc2ccccc2)N1CC1CC1 (stereo not drawn) [Example 6ZH]
- pKi [1, 3]: > 8.00
- IC90 (HIV-1 (RF) in MT-2 cells; HIV RNA assay): +++ (+++=<10 μg/mL)

SMILES: Nc1cccc(CN2C(=O)N(Cc3cccc(N)c3)C(Cc3ccccc3)C(O)C(O)C2Cc2ccccc2)c1 (stereo not drawn) [Example 6ZI]
- pKi [1]: > 8.00
- IC90 (HIV-1 (RF) in MT-2 cells; [2]): < 10 µg/mL

SMILES: NCc1cccc(CN2C(=O)N(Cc3cccc(CN)c3)C(Cc3ccccc3)C(O)C(O)C2Cc2ccccc2)c1 (stereo not drawn) [Example 6ZK]
- pKi [1]: 6.00 to 8.00
- IC90 (HIV-1 (RF) in MT-2 cells; [2]): 10 to 100 µg/mL (≈ 17.7 to 177 µM)

SMILES: O=C1NC(Cc2ccccc2)C(O)C(O)C(Cc2ccccc2)N1Cc1cccc([N+](=O)[O-])c1 (stereo not drawn) [Example 6ZL]
- pKi [1]: > 8.00
- IC90 (HIV-1 (RF) in MT-2 cells; [2]): < 10 µg/mL

SMILES: O=CNc1cccc(CN2C(=O)N(Cc3cccc(NC=O)c3)C(Cc3ccccc3)C(O)C(O)C2Cc2ccccc2)c1 (stereo not drawn) [Example 6ZM]
- pKi [1]: > 8.00
- IC90 (HIV-1 (RF) in MT-2 cells; [2]): < 10 µg/mL

SMILES: CC(=O)Nc1cccc(CN2C(=O)N(Cc3cccc(NC(C)=O)c3)C(Cc3ccccc3)C(O)C(O)C2Cc2ccccc2)c1 (stereo not drawn) [Example 6ZN]
- pKi [1]: > 8.00
- IC90 (HIV-1 (RF) in MT-2 cells; [2]): < 10 µg/mL

SMILES: O=C1N(Cc2cn(Cc3ccccc3)cn2)C(Cc2ccccc2)C(O)C(O)C(Cc2ccccc2)N1Cc1cn(Cc2ccccc2)cn1 (stereo not drawn) [Example 6ZP]
- pKi [1, 3]: < 6.00
- IC90 (HIV-1 (RF) in MT-2 cells; HIV RNA assay): ++ (++=10 to 100 μg/mL)

SMILES: O=C1N(Cc2ccc(O)c(O)c2)C(Cc2ccccc2)C(O)C(O)C(Cc2ccccc2)N1Cc1ccc(O)c(O)c1 (stereo not drawn) [Example 6ZQ]
- pKi [1]: > 8.00
- IC90 (HIV-1 (RF) in MT-2 cells; [2]): < 10 µg/mL

SMILES: O=C1NC(Cc2ccccc2)C(O)C(O)C(Cc2ccccc2)N1Cc1ccccc1 (stereo not drawn) [Example 6o]
- pKi [1]: > 8.00
- IC90 (HIV-1 (RF) in MT-2 cells; [2]): < 10 µg/mL
